Experimental data from patent US20240199542A1, “SUBSTITUTED PYRROLIDIN-2-ONES, SALTS THEREOF AND THEIR USE AS HERBICIDALLY ACTIVE SUBSTANCES” (Bayer Aktiengesellschaft, priority 2021, published 2024).

Tests used:
Type in all cases: in vivo
[1] = tested on: Cyperus esculentus (CYPES); assay: Herbicidal post-emergence action; conditions: 1280 g/ha, assessed after ca. 3 weeks
Procedure, shortened: (§1)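 Post-emergence greenhouse spray test: single-leaf plants treated with WP or EC formulations at 1280 g/ha or 320 g/ha in 600 l water/ha containing 0.5% additive. Activity is visual percent damage after roughly 3 weeks relative to untreated controls.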

Veronica persica (VERPE) = assay: Herbicidal pre-emergence action; conditions: 1280 g/ha, graded after ca. 3 weeks
Procedure, shortened: (§2)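 Sown seeds in sandy loam received the formulated compounds on the covering soil at application rates up to 1280 g/ha, applied in 600 l water/ha with 0.5% additive. Damage was graded visually after about 3 weeks relative to untreated plants.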

[2] = tested on: Alopecurus myosuroides (ALOMY); assay: Herbicidal pre-emergence action; conditions: graded after ca. 3 weeks
Procedure, shortened: as §2

[3] = tested on: Echinochloa crus-galli (ECHCG); assay: Herbicidal post-emergence action; conditions: assessed after ca. 3 weeks
Procedure, shortened: as §1

Setaria viridis (SETVI) [4] = assay: Herbicidal post-emergence action; conditions: 1280 g/ha, assessed after ca. 3 weeks
Procedure, shortened: as §1

[5] = tested on: Lolium multiflorum (LOLMU); assay: Herbicidal post-emergence action; conditions: assessed after ca. 3 weeks
Procedure, shortened: as §1

[6] = tested on: Alopecurus myosuroides (ALOMY); assay: Herbicidal post-emergence action; conditions: assessed after ca. 3 weeks
Procedure, shortened: as §1

Avena fatua (AVEFA) [7] = assay: Herbicidal post-emergence action; conditions: assessed after ca. 3 weeks
Procedure, shortened: as §1

[8] = tested on: Echinochloa crus-galli (ECHCG); assay: Herbicidal pre-emergence action; conditions: graded after ca. 3 weeks
Procedure, shortened: as §2

Setaria viridis (SETVI) [9] = assay: Herbicidal pre-emergence action; conditions: graded after ca. 3 weeks
Procedure, shortened: as §2

[10] = tested on: Lolium multiflorum (LOLMU); assay: Herbicidal pre-emergence action; conditions: 1280 g/ha, graded after ca. 3 weeks
Procedure, shortened: as §2

[11] = tested on: Cyperus esculentus (CYPES); assay: Herbicidal pre-emergence action; conditions: 1280 g/ha, graded after ca. 3 weeks
Procedure, shortened: as §2

Avena fatua (AVEFA) [12] = assay: Herbicidal pre-emergence action; conditions: graded after ca. 3 weeks
Procedure, shortened: as §2

Glycine max (GLXMA) [13] = assay: Post-emergence effects on crop plants; conditions: crop plant
Text: (§3) Seeds of mono- and dicotyledonous weed plants and crop plants were sown, in plastic or organic planting pots, in sandy loam, covered with soil and grown in a greenhouse under controlled growth conditions. 2 to 3 weeks after sowing, the test plants were sprayed in the single-leaf stage. The compounds according to the invention, formulated in form of wettable powders (WP) or as emulsifiable concentrates (EC), were sprayed onto the green plant parts as aqueous suspension or emulsion, with the addition of 0.5% of an additive, at an application rate of 600 1 of water/ha (converted). The test plants were placed in the greenhouse for ca. 3 weeks under optimum growth conditions, and then the effect of the preparations was assessed visually in comparison with untreated controls (herbicidal effect in percent (%): 100% effect=plants have died off, 0% effect=as control plants).
(§4) Tables D1 to D3 below show the effects of selected compounds of the general formula (I) according to table 1 on various crop plants and an application rate corresponding to 320 g/ha or below obtained by the experimental procedure mentioned above in biology section B.

Brassica napus (BRSNW) [14] = assay: Post-emergence effects on crop plants; conditions: application rate 320 g/ha, crop plant Brassica napus (BRSNW)
Text: as §3, §4

Zea Mays (ZEAMX) [15] = assay: Post-emergence effects on crop plants; conditions: crop plant
Text: as §3, §4

Glycine max (GLXMA) [16] = assay: Pre-emergence effects on crop plants; conditions: crop plant
Text: (§5) Seeds of mono- and dicotyledonous weed plants and crop plants were sown, in plastic or organic planting pots, in sandy loam and covered with soil. The compounds according to the invention, formulated in the form of wettable powders (WP) or as emulsifiable concentrates (EC), were applied to the surface of the covering soil as aqueous suspension or emulsion, with the addition of 0.5% of an additive, at an application rate of 600 1 of water/ha (converted).
(§6) Following treatment, the pots were placed in a greenhouse and kept under optimum growth conditions for the test plants. The visual grading of the damage to the test plants was carried out after ca. 3 weeks in comparison to untreated controls (herbicidal effect in percent (%): 100% effect=plants have died off, 0% effect=as control plants).
(§7) Tables C1 to C3 below show the effects of selected compounds of the general formula (I) according to table 1 on various crop plants and an application rate corresponding to 320 g/ha or below obtained by the experimental procedure mentioned above in biology section A.

Brassica napus (BRSNW) [17] = assay: Pre-emergence effects on crop plants; conditions: 320 g/ha, crop plant
Text: as §5, §6, §7

[18] = tested on: Digitaria sanguinalis (DIGSA); assay: Herbicidal post-emergence action; conditions: 320 g/ha, assessed after ca. 3 weeks
Procedure, shortened: as §1

[19] = tested on: Digitaria sanguinalis (DIGSA); assay: Herbicidal pre-emergence action; conditions: 320 g/ha, graded after ca. 3 weeks
Procedure, shortened: as §2

Lolium rigidum (LOLRI) = assay: Herbicidal pre-emergence action; conditions: 320 g/ha, graded after ca. 3 weeks
Procedure, shortened: as §2

Viola tricolor (VIOTR) = assay: Herbicidal pre-emergence action; conditions: 320 g/ha, graded after ca. 3 weeks
Procedure, shortened: as §2

[20] = tested on: Polygonum convolvulus (POLCO); assay: Herbicidal pre-emergence action; conditions: graded after ca. 3 weeks
Procedure, shortened: as §2

Zea Mays (ZEAMX) [21] = assay: Pre-emergence effects on crop plants; conditions: crop plant
Text: as §5, §6, §7

[22] = tested on: Polygonum convolvulus (POLCO); assay: Herbicidal post-emergence action; conditions: 1280 g/ha, assessed after ca. 3 weeks
Procedure, shortened: as §1

| Compound | Post-emergence activity against CYPES [1] [%] | Pre-emergence activity against ALOMY ([2]; 1280 g/ha) [%] | Post-emergence activity against ECHCG ([3]; 1280 g/ha) [%] | Post-emergence activity against SETVI (Setaria viridis (SETVI) [4]) [%] | Post-emergence activity against LOLMU ([5]; 1280 g/ha) [%] | Post-emergence activity against ALOMY ([6]; 1280 g/ha) [%] | Post-emergence activity against AVEFA (Avena fatua (AVEFA) [7]; 1280 g/ha) [%] | Pre-emergence activity against ECHCG ([8]; 1280 g/ha) [%] | Pre-emergence activity against SETVI (Setaria viridis (SETVI) [9]; 1280 g/ha) [%] | Pre-emergence activity against LOLMU [10] [%] | Pre-emergence activity against CYPES [11] [%] | Pre-emergence activity against AVEFA (Avena fatua (AVEFA) [12]; 1280 g/ha) [%] | post-emergence activity against BRSNW (Brassica napus (BRSNW) [14]) [%] | post-emergence activity against ZEAMX (crop damage) (Zea Mays (ZEAMX) [15]; 320 g/ha) [%] | pre-emergence activity against GLXMA (crop damage) (Glycine max (GLXMA) [16]; 320 g/ha) [%] | pre-emergence activity against BRSNW (crop damage) (Brassica napus (BRSNW) [17]) [%] | Post-emergence activity against DIGSA [18] [%] | Pre-emergence activity against DIGSA [19] [%] | Pre-emergence activity against AVEFA (Avena fatua (AVEFA) [12]; 320 g/ha) [%] | post-emergence activity against GLXMA (crop damage) (Glycine max (GLXMA) [13]; 320 g/ha) [%] | further results |
| --- | --- | --- | --- | --- | --- | --- | --- | --- | --- | --- | --- | --- | --- | --- | --- | --- | --- | --- | --- | --- | --- |
| CC(C)CNC(=O)CC1CCC(=O)N1Cc1cccc(F)c1F (racemic) [Example I-056] | 80 | 80 |  |  |  |  |  |  |  |  |  |  |  |  |  |  |  |  |  |  | Pre-emergence activity against VERPE (Veronica persica (VERPE)): 100% |
| CS(=O)(=O)NC(=O)CC1CCC(=O)N1Cc1cccc(F)c1F (racemic) [Example I-012] | 80 | 90 | 90 | 90 | 90 | 80 | 90 | 80 | 90 | 90 | 80 | 90 |  |  |  |  |  |  |  |  |  |
| Cn1ncnc1NC(=O)CC1CCC(=O)N1Cc1cccc(F)c1F (racemic) [Example I-002] |  |  |  |  |  |  |  |  |  |  |  |  | 0 | 0 | 0 | 0 | 80 | 80 | 100 |  | post-emergence activity against GLXMA (crop damage) (Glycine max (GLXMA) [13]; 80 g/ha): 0%; post-emergence activity against ZEAMX (crop damage) (Zea Mays (ZEAMX) [15]; 80 g/ha): 0%; Post-emergence activity against ECHCG ([3]; 320 g/ha): 90%; Post-emergence activity against LOLMU ([5]; 320 g/ha): 80%; Post-emergence activity against ALOMY ([6]; 320 g/ha): 80%; Post-emergence activity against AVEFA (Avena fatua (AVEFA) [7]; 320 g/ha): 80%; Pre-emergence activity against ALOMY ([2]; 320 g/ha): 100% |
| CS(=O)(=O)CCOC(=O)CC1CCC(=O)N1Cc1cccc(F)c1F (racemic) [Example I-009] |  | 90 | 100 | 80 | 90 | 80 | 90 | 90 | 80 | 80 | 80 | 100 | 20 |  |  | 0 | 80 | 90 |  | 0 | pre-emergence activity against GLXMA (crop damage) (Glycine max (GLXMA) [16]; 80 g/ha): 20%; Pre-emergence activity against LOLRI (Lolium rigidum (LOLRI)): 80%; Pre-emergence activity against VIOTR (Viola tricolor (VIOTR)): 100%; Pre-emergence activity against POLCO ([20]; 320 g/ha): 80% |
| COC(=O)c1ccccc1NC(=O)CC1CCC(=O)N1Cc1cccc(F)c1F (racemic) [Example I-080] |  |  |  |  |  |  |  |  |  |  |  |  | 0 | 0 | 0 | 0 |  | 80 | 80 | 0 | pre-emergence activity against ZEAMX (crop damage) (Zea Mays (ZEAMX) [21]; 320 g/ha): 0%; Pre-emergence activity against SETVI (Setaria viridis (SETVI) [9]; 320 g/ha): 90% |
| CC[C@H](C)[C@H](NC(=O)CC1CCC(=O)N1Cc1cccc(F)c1F)C(=O)O (single isomer, unassigned) [Example I-005] | 90 | 90 | 100 | 90 | 90 | 90 | 90 | 80 |  | 80 |  | 100 |  |  |  |  |  |  |  |  | Post-emergence activity against POLCO [22]: 80%; Pre-emergence activity against POLCO ([20]; 1280 g/ha): 80% |
| COCC(=O)CC(=O)CNC(=O)CC1CCC(=O)N1Cc1cccc(F)c1F (racemic) [Example I-006] | 80 | 90 | 100 | 80 | 80 | 90 | 100 | 90 |  | 90 | 90 | 100 |  |  |  |  |  |  |  |  | Pre-emergence activity against POLCO ([20]; 1280 g/ha): 90% |
| O=C(O)CC1CCC(=O)N1Cc1cc(F)cc(F)c1F (racemic) [Example I-201] |  |  |  |  |  |  |  |  |  |  |  |  |  |  | 0 |  | 90 | 90 | 100 | 0 | post-emergence activity against ZEAMX (crop damage) (Zea Mays (ZEAMX) [15]; 80 g/ha): 0%; pre-emergence activity against ZEAMX (crop damage) (Zea Mays (ZEAMX) [21]; 80 g/ha): 0%; Post-emergence activity against ECHCG ([3]; 320 g/ha): 90%; Post-emergence activity against ALOMY ([6]; 320 g/ha): 90%; Post-emergence activity against AVEFA (Avena fatua (AVEFA) [7]; 320 g/ha): 100%; Pre-emergence activity against ECHCG ([8]; 320 g/ha): 100%; Pre-emergence activity against SETVI (Setaria viridis (SETVI) [9]; 320 g/ha): 100%; Pre-emergence activity against LOLRI (Lolium rigidum (LOLRI)): 80%; Pre-emergence activity against ALOMY ([2]; 320 g/ha): 100% |
| O=C(O)C1CCCN1C(=O)CC1CCC(=O)N1Cc1cccc(F)c1F (racemic) [Example I-013] |  | 90 | 80 |  |  | 80 | 80 | 90 | 90 | 90 |  | 100 | 0 | 0 |  | 0 | 80 | 90 |  | 0 | pre-emergence activity against GLXMA (crop damage) (Glycine max (GLXMA) [16]; 80 g/ha): 0%; pre-emergence activity against ZEAMX (crop damage) (Zea Mays (ZEAMX) [21]; 320 g/ha): 0%; Pre-emergence activity against LOLRI (Lolium rigidum (LOLRI)): 80%; Pre-emergence activity against VIOTR (Viola tricolor (VIOTR)): 90%; Pre-emergence activity against POLCO ([20]; 1280 g/ha): 90% |
| Cn1ncnc1NC(=O)CC1CCC(=O)N1Cc1cccc(F)c1F (single isomer, unassigned) [Example I-075] |  |  |  |  |  |  | 100 |  |  |  |  |  | 0 | 0 | 0 | 0 |  |  | 90 | 0 | pre-emergence activity against ZEAMX (crop damage) (Zea Mays (ZEAMX) [21]; 320 g/ha): 0% |
